One assay concerns the target ACKR3 (Homo sapiens, UniProt P25106). Description: ACKR3 β-arrestin recruitment assay (PathHunter, β-galactosidase complementation). Particulars: for Emax: read-out: ACKR3 β-arrestin % CXCL12 Emax ± SEM; for EC50: stable human ACKR3-β-arrestin-2-CHO cells, mean ± SEM, at least two independent experiments in duplicate. Format: cell-based. In short, it runs like this: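 Agonist mode in PathHunter CHO cells expressing human ACKR3-β-arrestin-2, compounds added in DPBS/1% DMSO for 1.5 hr at 37° C, then detection 1 hr at room temperature, luminescence read. CXCR4 run in C2C12 cells with a 3 hr Cell Plating Reagent 4 preincubation. EC50 and % Emax from three-parameter fits, CXCL-12 as reference agonist; ≥2 independent experiments in duplicate.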

The target in another assay is T1, CaV 3.2 (Homo sapiens, UniProt O95180).
T1 construct: expressed in transfected cells
Description: CaV 3.2 calcium assay in stable human CaV3.2-HEK293 cells. Particulars: control agonist calcium chloride. Format: cell-based. As for the experimental part:
Compounds were evaluated for kappa (KOR), mu (MOR), and delta (DOR) opioid receptor agonist and antagonist activity in three individual cell lines overexpressing Gαq16 (CHO-RD-HGA16, Molecular Devices) and the human kappa, mu, and delta opioid receptors, respectively. The day before the assay, cells were plated into 96-well black-walled assay plates at 30,000 cells/well in Ham's F12 supplemented with 10% fetal bovine serum, and 100 units of penicillin and streptomycin. The cells were incubated overnight at 37° C., 5% CO2. Prior to the assay, Calcium 5 dye (Molecular Devices) was reconstituted according to the manufacturer's instructions. The reconstituted dye was diluted 1:40 in pre-warmed (37° C.) assay buffer (1×HBSS, 20 mM HEPES, 2.5 mM probenecid, pH 7.4 at 37° C.). Growth medium was removed and the cells were gently washed with 100 μL of pre-warmed (37° C.) assay buffer. The cells were incubated for 45 minutes at 37° C., 5% CO2 in 200 μL of the diluted Calcium 5 dye. For the agonist screen, a single concentration of each test compound and receptor-specific controls (U69,593, DAMGO, and DPDPE for KOR, MOR, and DOR, respectively) were prepared at 10× the desired final concentration in 1% DMSO/assay buffer, aliquoted into a 96-well polystyrene plate, and warmed to 37° C. After the dye-loading incubation period, pretreatment solution was added to each well (25 μL of 9% DMSO/assay buffer) and, after 15 min, the plate was read with a FlexStation II (Molecular Devices). Calcium-mediated changes in fluorescence were monitored every 1.52 seconds over a 60 second time period, with the FlexStation II adding 50 μL of test compounds at the 19 second time point (excitation at 485 nm, detection at 525 nm). Peak kinetic reduction (SoftMax, Molecular Devices) relative fluorescence units (RFU) were used to calculate % control agonist Emax with the equation % Emax=(test compound RFU/control agonist RFU)×100. For the antagonist screens, the same procedure was followed except that the pretreatment solution consisted of the test compounds (prepared at […] the desired final concentration in 9% DMSO/assay buffer) and the FlexStation added the EC60 concentration (prepared at 10× the desired final concentration in 1% DMSO/assay buffer) of each respective control agonist. Peak RFU were used to calculate % control EC60 inhibition with the equation % inhibition=((EC60 RFU−test compound RFU)/EC60 RFU)×100. When IC50 determinations were made, the same antagonist screen procedure was followed except that cells were pretreated with 8-pt concentration-response curves of the test compounds. Peak RFU were plotted against the log of compound concentration using non-linear regression analysis to generate IC50 values (GraphPad Prism). Each test sample was analyzed in duplicate in two independent experiments.
Compounds were evaluated for activity at CaV 3.2 using stable human CaV3.2-HEK293 cells and the control agonist calcium chloride. The day before the assay, cells were plated into 96-well black-walled assay plates coated with poly-D-lysine in DMEM-F12 supplemented with 10% fetal bovine serum, 100 units penicillin/streptomycin, and 500 μM sodium pyruvate, and incubated at 37° C., 5% CO2 overnight. Prior to the assay, Calcium 5 dye (Molecular Devices) was reconstituted according to the manufacturer instructions. The reconstituted dye was diluted 1:10 in pre-warmed (37° C.) assay buffer (1×HBSS, […], […], pH 7.4 at 37° C.). The cells were incubated for 45 minutes at 37° C., 5% CO2 in 200 μL of the diluted Calcium 5 dye. Compounds were prepared as described above and the plate was read with a FLIPR Tetra (Molecular Devices). Calcium-mediated changes in fluorescence were monitored every 1 second over a 60 second time period, with the Tetra adding 25 μL of appropriate compound at the 10 second time point (excitation at 470-495 nm, detection at 515-575 nm). […]

SMILES strings stand for the structures.

Sequence of ACKR3 (P25106 whole entry): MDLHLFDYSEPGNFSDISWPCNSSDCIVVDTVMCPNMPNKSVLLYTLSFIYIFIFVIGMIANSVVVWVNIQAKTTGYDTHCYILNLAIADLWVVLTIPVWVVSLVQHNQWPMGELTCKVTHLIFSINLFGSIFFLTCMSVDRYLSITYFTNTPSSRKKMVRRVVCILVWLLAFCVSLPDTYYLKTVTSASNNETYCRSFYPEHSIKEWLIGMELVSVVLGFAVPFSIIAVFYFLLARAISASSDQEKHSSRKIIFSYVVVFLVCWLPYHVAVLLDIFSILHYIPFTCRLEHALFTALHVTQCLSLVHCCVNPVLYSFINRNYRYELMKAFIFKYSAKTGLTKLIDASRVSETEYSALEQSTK
T1 sequence (O95180 whole entry): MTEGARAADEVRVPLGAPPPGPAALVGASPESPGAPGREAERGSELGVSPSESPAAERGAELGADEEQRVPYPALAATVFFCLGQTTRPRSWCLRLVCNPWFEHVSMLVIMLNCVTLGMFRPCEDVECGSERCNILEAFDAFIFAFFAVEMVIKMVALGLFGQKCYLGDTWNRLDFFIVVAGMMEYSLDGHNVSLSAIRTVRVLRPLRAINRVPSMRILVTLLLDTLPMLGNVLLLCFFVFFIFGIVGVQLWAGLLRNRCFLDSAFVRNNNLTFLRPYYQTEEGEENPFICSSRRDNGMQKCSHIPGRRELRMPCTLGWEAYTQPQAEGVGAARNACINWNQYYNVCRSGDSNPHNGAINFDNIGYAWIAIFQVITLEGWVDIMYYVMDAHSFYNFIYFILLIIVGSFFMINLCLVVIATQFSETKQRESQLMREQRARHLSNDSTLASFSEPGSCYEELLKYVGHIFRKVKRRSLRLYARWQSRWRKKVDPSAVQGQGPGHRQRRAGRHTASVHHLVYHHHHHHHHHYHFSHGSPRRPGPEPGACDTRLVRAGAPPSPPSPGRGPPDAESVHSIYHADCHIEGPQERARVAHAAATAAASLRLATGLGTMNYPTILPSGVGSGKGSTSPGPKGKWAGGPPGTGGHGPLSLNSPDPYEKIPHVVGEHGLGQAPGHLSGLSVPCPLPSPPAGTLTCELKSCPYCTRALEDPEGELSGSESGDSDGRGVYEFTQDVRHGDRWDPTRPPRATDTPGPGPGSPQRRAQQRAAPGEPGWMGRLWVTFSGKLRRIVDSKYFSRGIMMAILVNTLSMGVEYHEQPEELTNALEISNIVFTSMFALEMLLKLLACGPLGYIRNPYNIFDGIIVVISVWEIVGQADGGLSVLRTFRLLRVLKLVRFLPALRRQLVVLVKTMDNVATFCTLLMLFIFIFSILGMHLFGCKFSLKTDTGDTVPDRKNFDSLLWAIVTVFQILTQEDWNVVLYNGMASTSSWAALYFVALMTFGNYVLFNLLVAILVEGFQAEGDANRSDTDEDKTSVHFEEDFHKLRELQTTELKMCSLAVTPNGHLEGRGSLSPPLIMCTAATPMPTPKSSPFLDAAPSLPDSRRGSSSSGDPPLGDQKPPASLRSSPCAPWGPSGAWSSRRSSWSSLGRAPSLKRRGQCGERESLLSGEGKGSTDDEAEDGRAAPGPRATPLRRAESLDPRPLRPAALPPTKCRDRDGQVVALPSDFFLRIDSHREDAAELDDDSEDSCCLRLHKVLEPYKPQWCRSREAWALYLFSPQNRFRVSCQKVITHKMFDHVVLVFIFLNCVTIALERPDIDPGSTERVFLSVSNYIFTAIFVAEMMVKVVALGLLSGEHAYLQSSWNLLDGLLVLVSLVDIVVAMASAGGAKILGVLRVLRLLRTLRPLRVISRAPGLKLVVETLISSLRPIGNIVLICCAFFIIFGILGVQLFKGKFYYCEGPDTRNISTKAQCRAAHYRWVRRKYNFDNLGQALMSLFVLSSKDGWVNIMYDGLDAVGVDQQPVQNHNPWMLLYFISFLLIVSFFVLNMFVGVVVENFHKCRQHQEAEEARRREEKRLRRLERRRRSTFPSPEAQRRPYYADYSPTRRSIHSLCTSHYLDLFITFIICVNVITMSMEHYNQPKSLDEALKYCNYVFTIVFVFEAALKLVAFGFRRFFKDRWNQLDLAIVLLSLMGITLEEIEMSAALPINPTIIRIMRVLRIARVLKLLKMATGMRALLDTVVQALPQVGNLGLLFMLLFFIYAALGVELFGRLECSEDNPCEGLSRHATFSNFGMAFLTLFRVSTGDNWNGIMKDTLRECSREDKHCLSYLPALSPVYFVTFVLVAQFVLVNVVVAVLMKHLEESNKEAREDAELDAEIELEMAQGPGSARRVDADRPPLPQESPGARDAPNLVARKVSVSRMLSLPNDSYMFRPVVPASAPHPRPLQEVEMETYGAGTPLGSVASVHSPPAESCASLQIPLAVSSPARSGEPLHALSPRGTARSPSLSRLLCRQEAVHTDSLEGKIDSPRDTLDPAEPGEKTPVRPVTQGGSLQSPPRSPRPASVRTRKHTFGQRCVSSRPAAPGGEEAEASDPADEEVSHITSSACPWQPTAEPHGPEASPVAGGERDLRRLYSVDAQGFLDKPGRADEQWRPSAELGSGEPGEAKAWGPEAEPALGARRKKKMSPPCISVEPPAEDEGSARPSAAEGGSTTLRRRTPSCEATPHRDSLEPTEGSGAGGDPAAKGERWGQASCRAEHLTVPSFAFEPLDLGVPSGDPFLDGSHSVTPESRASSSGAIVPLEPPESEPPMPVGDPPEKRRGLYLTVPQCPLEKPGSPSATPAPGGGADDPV

For the compound `C/C=C1/CN2CC[C@H]1C(=O)c1[nH]c3ccccc3c1C2` [WW-1, (4E,5R)-4-ethylidene-1,4,5,7-tetrahydro-2,5-ethanoazocino[4,3-b]indol-6(3H)-one], on ACKR3, the Emax (in general, the greatest response seen or fitted, relative to the assay's reference) turned out to be 181 ± 4% and a half-maximal response (EC50) required 27.3 ± 0.44 µM. Further, the “CaV 3.2 % CaCl2 Inhibition” value at CaV 3.2 is on record as −7%.
On to `C/C=C1/CN(CCCCC)CC[C@H]1C(=O)c1cc2ccccc2[nH]1` [WW-12, [(3E,4R)-3-ethylidene-1-pentylpiperidin-4-yl](1H-indol-2-yl)methanone], for which, at ACKR3, the Emax was 140 ± 11% and a half-maximal response (EC50) required 0.353 ± 0.019 µM. The “CaV 3.2 % CaCl2 Inhibition” value at CaV 3.2 was determined as 42%.

These data come from patent US20240059688A1, “CONOLIDINE ANALOGUES AS SELECTIVE ACKR3 MODULATORS FOR THE TREATMENT OF CANCER” (Luxembourg Institute of Health (LIH), priority 2020, published 2024).
